Results reported in patent US20240139219A1, “COMBINATION OF A SERCA2 INHIBITOR AND A STING ACTIVATOR FOR USE IN TREATING AND/OR PREVENTING CANCER” (Centre national de la recherche scientifique, priority 2021, published 2024).

What was measured:
[1] = system: mouse embryonic fibroblasts (MEFs); experiment: CellTiter-Glo Luminescent Cell Viability Assay in MEFs; type: cell-based; details: MEF; ADUS-100 5 μM, TA 12.5 nM or 6.25 nM, single or combined; viability 24 h after treatment (FIG. 6B)
Protocol: (§1) FIG. 6: Inhibition of SERCA2 (ATP2A2) in combination with STING agonist increases inflammatory responses in mouse embryonic fibroblasts (MEFs). • (A) MEFs were cultured for 24 h prior to 6 h stimulation with ADUS-100 (5 μM) in combination or not with 12.5 nM or 6.25 nM of thapsigargin (TA). Graphs present fold increase lfnβ mRNA levels, as compared to unstimulated cells. • (B) MEFs were cultured for 24 h prior to 6 h stimulation with ADUS-100 (5 μM) in combination or not with 12.5 nM or 6.25 nM of TA. Graphs present viability level, as compared to unstimulated cells.
(§2) Murine embryonic fibroblasts (MEF) and murine pancreatic cancer cell lines (KPC and Panc02) were maintained in Dulbecco's modified Eagle's medium (DMEM) supplemented with 10% fetal bovine serum (FBS), 1% penicillin/streptomycin and 1% glutamine.
(§3) Cells were treated during 6 h with ADUS-100 (5 μM) in presence or not of thapsigargin (TA) at 12.5 nM or 6.25 nM in complete medium.
The CellTiter-Glo® Luminescent Cell Viability Assay was used to determine the number of viable cells 24 h after treatment.

[2] = system: KPC cells; experiment: CellTiter-Glo Luminescent Cell Viability Assay in KPC cells; type: cell-based, murine; details: ADUS-100 5 μM, TA 12.5 nM or 6.25 nM, single or combined, viability 24 h after treatment (FIG. 7B)
Protocol: (§4) FIG. 7: Inhibition of SERCA2 (ATP2A2) in combination of STING agonist increases inflammatory responses in cancer cell lines. • (A) The KPC murine pancreatic cell line was cultured 24 h prior to 6 h stimulation with ADUS-100 (5 μM) in combination or not with 12.5 nM or 6.25 nM TA. Graphs present fold increase Cxcl10 mRNA levels, an interferon responding gene, as compared to unstimulated cells. • (B) KPC cells were cultured 24 h prior 6 h stimulation with ADUS-100 (5 μM) in combination or not with 12.5 nM or 6.25 nM TA. Graphs present viability level, as compared to unstimulated cells. • (C) The Panco2 murine pancreatic cell line was cultured 24 h prior to 6 h stimulation with ADUS-100 (5 μM) in combination or not with 12.5 nM or 6.25 nM TA. Graphs present fold increase Cxcl10 mRNA levels, an interferon responding gene, as compared to unstimulated cells. • (D) Panco2 cells were cultured 24 h prior to 6 h stimulation with ADUS-100 (5 μM) in combination or not with 12.5 nM or 6.25 nM TA. Graphs present viability level, as compared to unstimulated cells.
(§5) Murine embryonic fibroblasts (MEF) and murine pancreatic cancer cell lines (KPC and Panc02) were maintained in Dulbecco's modified Eagle's medium (DMEM) supplemented with 10% fetal bovine serum (FBS), 1% penicillin/streptomycin and 1% glutamine. […]

[3] = system: Panc02 cells; experiment: CellTiter-Glo Luminescent Cell Viability Assay in Panc02 cells; type: cell-based, murine; details: ADUS-100 5 μM, TA 12.5 nM or 6.25 nM, single or combined, viability 24 h after treatment (FIG. 7D)
Protocol: as §4, §5

[4] = system: mice; experiment: In vivo toxicity, subcutaneous injection, macroscopic observation of skin at the injection site; details: 3 times one injection every 3 day, TA 50 nM, ADUS-100 5 μM, or both (Combi), data not shown
[5] = system: WT-MEF cells; experiment: RT-qPCR of Ifnβ, Cxcl10 and Isg15 mRNA in WT-MEF stimulated with DMXAA; type: cell-based, murine; details: WT-MEF under DMXAA stimulation (200 μM, 2 h) in combination with CDN-1163 (FIG. 4A)
Protocol: WT-MEF cells were cultured 24 h prior 2h stimulation with DMXAA (200 μM) in combination or not with CPA (A-C) or thapsigargin (D-E). Graphs present fold increase Ifnβ, Cxcl10 and Isg15 mRNA levels, as compared to unstimulated cells. Graphs present mean value from duplicates.
WT-MEF cells were cultured 24 h prior 2 h stimulation with DMXAA (200 μM) in combination or not with CDN-1163 (A-C). Graphs present fold increase […], Cxcl10 and Isg15 mRNA levels, as compared to unstimulated cells. Graphs present mean value from duplicates.
(§6) Wild type murine embryonic fibroblasts (WT-MEF) and MEF-Trex^−/−, were maintained in Dulbecco's modified Eagle's medium (DMEM) supplemented with 10% fetal bovine serum (FBS), 1% penicillin/streptomycin and 1% glutamine.
(§7) RNA was extracted using Trizol (Invitrogen) and treated with TURBO DNase (Ambion) according to manufacturer's protocols. Reverse transcription (SuperScript IV reverse transcriptase, Invitrogen) and qPCR using specific primers were performed using SYBR Green Master Mix (Takara) and LightCycler 480 cycler (Roche). mRNA levels were normalized to HSP90 mRNA levels. […]
To this aim, WT-MEFs were treated with the CDN-1163 SERCA2 agonist, and interferon response gene levels were assessed (FIG. 4).

[6] = system: Trex1 KO MEFs; experiment: RT-qPCR of Ifnβ, Cxcl10 and Isg15 mRNA in Trex1 KO MEF (model of chronic STING activation); type: cell-based, murine; details: Trex1-deficient MEF, 2 h treatment (FIG. 2)
Protocol: MEF^Trexl−/− cells were treated or not with CPA (A-C) or thapisgargin (D-E) for 2 h. Graphs present fold increase Ifnβ, Cxcl10 and Isg15 mRNA levels, as compared to unstimulated cells. Graphs present mean value from duplicates (A-C) or average of 2 independent experiments (D-F). Error bars: standard deviation.
as §6
RNA was extracted using Trizol (Invitrogen) and treated with TURBO DNase (Ambion) according to manufacturer's protocols. Reverse transcription (SuperScript IV reverse transcriptase, Invitrogen) and qPCR using specific primers were performed using SYBR Green Master Mix (Takara) and LightCycler 480 cycler (Roche). mRNA levels were normalized to HSP90 mRNA levels.
WT-MEF stimulated or not with DMXAA, a murine STING ligand which triggers STING-dependent inflammatory responses (FIG. 1); and Trex I KO MEF which is a model of chronic STING activation (FIG. 2).
WT-MEF or Trex I KO MEF were treated for 2 h with SERCA2 inhibitors thapsigargin (TA) or CPA.

[7] = molecular target: SERCA2 (Homo sapiens, UniProt P16615); details: read-out: IC50 in vitro for SERCA2 (for calcium entry); cited from earlier work
Chain of SERCA2 (P16615 whole entry): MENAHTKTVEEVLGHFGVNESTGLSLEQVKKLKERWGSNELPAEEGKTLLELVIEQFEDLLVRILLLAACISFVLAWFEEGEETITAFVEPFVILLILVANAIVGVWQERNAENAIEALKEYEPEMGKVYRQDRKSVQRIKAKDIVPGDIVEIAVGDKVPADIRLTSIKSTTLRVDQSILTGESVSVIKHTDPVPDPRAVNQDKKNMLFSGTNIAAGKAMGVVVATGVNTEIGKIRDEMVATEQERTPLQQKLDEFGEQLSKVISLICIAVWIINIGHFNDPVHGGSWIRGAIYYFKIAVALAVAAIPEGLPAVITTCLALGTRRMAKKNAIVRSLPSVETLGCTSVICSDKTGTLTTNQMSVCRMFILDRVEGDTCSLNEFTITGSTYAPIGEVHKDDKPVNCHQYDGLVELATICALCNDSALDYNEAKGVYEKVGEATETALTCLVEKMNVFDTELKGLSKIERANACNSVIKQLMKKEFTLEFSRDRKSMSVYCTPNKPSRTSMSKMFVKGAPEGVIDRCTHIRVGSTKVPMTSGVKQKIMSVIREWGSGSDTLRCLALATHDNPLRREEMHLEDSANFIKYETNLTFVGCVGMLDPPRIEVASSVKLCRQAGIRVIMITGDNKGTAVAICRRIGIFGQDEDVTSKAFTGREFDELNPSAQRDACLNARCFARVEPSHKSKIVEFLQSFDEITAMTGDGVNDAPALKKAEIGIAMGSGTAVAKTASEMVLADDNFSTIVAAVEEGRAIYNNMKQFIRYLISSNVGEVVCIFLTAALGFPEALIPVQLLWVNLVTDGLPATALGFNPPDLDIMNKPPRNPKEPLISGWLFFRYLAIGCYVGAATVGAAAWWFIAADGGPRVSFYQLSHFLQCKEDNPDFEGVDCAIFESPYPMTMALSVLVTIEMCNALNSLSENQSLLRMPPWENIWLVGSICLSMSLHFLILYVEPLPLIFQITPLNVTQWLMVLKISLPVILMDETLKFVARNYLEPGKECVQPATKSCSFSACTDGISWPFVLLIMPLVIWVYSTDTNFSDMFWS

[8] = system: mouse embryonic fibroblasts (MEFs); experiment: RT-qPCR of Ifnβ mRNA in MEFs stimulated with ADUS-100 with or without thapsigargin; type: cell-based; details: MEF, 6 h, TA 12.5 nM or 6.25 nM in combination with ADU-S100 5 μM (FIG. 6A)
Protocol: as §1, §2, §3, §7

[9] = system: KPC murine pancreatic cell line; experiment: RT-qPCR of Cxcl10 mRNA in KPC cells stimulated with ADUS-100 with or without thapsigargin; type: cell-based; details: 6 h, TA 12.5 nM or 6.25 nM in combination with ADU-S100 5 μM (FIG. 7A)
Protocol: as §4, §5

[10] = system: Panc02 murine pancreatic cell line; experiment: RT-qPCR of Cxcl10 mRNA in Panc02 cells stimulated with ADUS-100 with or without thapsigargin; type: cell-based; details: Panc02, 6 h, TA 12.5 nM or 6.25 nM in combination with ADU-S100 5 μM (FIG. 7C)
Protocol: as §4, §5

| SMILES | cell toxicity (viability level) [1] | cell toxicity (viability level) [2] | cell toxicity (viability level) [3] | macroscopic observation of skin at the injection site (signs of toxicity) [4] | IFN-β gene expression [5] | CXCL10 mRNA levels [6] | IFN-β mRNA levels [6] | ISG15 mRNA levels [6] | IC50 [7] [nM] | induced inflammation marker Interferon-β (IFN-β) [8] | induced inflammation marker CXCL10 cytokine [9] | induced inflammation marker CXCL10 cytokine [10] |
| --- | --- | --- | --- | --- | --- | --- | --- | --- | --- | --- | --- | --- |
| Nc1ncnc2c1ncn2[C@@H]1O[C@@H]2COP(=O)([S-])O[C@@H]3[C@H](O)[C@@H](COP([O-])(=S)O[C@H]2[C@H]1O)O[C@H]3n1cnc2c(N)ncnc21.[Na+].[Na+] (some centres unmarked) [ADU-S100] | low cell toxicity | low cell toxicity | low cell toxicity | did not display signs of toxicity |  |  |  |  |  |  |  |  |
| Cc1ccc2cccc(NC(=O)c3ccc(OC(C)C)cc3)c2n1 [CDN-1163, N-(2-methylquinolin-8-yl)-4-propan-2-yloxybenzamide] |  |  |  |  | inhibits |  |  |  |  |  |  |  |
| CC(=O)C1=C(O)[C@@H]2[C@H]3c4c[nH]c5cccc(c45)C[C@H]3C(C)(C)N2C1=O [CPA, (6aR,11aS,11bR)-10-Acetyl-11-hydroxy-7,7-dimethyl-2,6,6a,7,11a,11b-hexahydro-9H-pyrrolo[1′,2′:2,3]isoindolo[4,5,6-cd]indol-9-one] |  |  |  |  |  | increase | increase | increase | < 2500 |  |  |  |
| C/C=C(/C)C(=O)O[C@H]1C(C)=C2[C@H]([C@@H]1OC(=O)CCCCCCC)[C@@](C)(OC(C)=O)C[C@H](OC(=O)CCC)[C@@]1(O)[C@H]2OC(=O)[C@@]1(C)O [Thapsigargin, (3S,3aR,4S,6S,6aR,7S,8S,9bS)-6-(Acetyloxy)-4-(butyryloxy)-3,3a-dihydroxy-3,6,9-trimethyl-8-{[(2Z)-2-methylbut-2-enoyl]oxy}-2-oxo-2,3,3a,4,5,6,6a,7,8,9b-decahydroazuleno[4,5-b]furan-7-yl octanoate] | low cell toxicity | low cell toxicity | low cell toxicity | did not display signs of toxicity |  | increase | increase | increase | < 15 | potentiation | potentiation | potentiation |
